Drawing on patent US20180265515A1 (Genentech, Inc., priority 2015, published 2018), this text covers Ki and IC50 for 18 molecules.

The target in assay [1] is T1, isolated recombinant JAK1 kinase domain (Homo sapiens, UniProt P23458).
T1 construct: The activity of the isolated recombinant JAK1 and JAK2 kinase domain was measured
The assay can be described thus: JAK1 enzyme assay (Caliper LabChip, Ki). The format is biochemical. Conditions: recombinant JAK1 kinase domain, 25 μM ATP. In a few lines:
(§1)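 Recombinant JAK1 or JAK2 kinase domain phosphorylating a 5-carboxyfluorescein-labelled JAK3-derived peptide, 30 min at 22° C, stopped with EDTA. Phosphorylated fraction of substrate quantified by Caliper LabChip microfluidic separation. Ki from Morrison tight-binding model corrected for ATP competition (Ki=Ki,app/(1+[ATP]/Km,app)).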

Assay [2] concerns the target T2, isolated recombinant JAK2 kinase domain (Homo sapiens, UniProt O60674).
T2 construct: The activity of the isolated recombinant JAK1 and JAK2 kinase domain was measured
The assay can be described thus: JAK2 enzyme assay (Caliper LabChip, Ki). The format is biochemical. Particulars: 25 μM ATP. In short, it runs like this: as §1

The subject of assay [3] is JAK1-dependent STAT6 phosphorylation downstream of IL-13 stimulation in BEAS-2B human bronchial epithelial cells. The assay can be described thus: JAK1 pathway assay in BEAS-2B cells (IL-13 stimulated STAT6 phosphorylation, MSD). Particulars: read-out: P-STAT6 BEAS2B + IL13 IC50. The format is cell-based. In a few lines: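 BEAS-2B human bronchial epithelial cells, plated the day before in complete growth medium, were preincubated with compound for 1 hr at 37° C (0.2% DMSO final), then stimulated with IL-13 at its EC90 for 15 min. STAT6 phosphorylation in lysates was read by MSD; EC50 was taken as 50% inhibition versus DMSO control.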

T2 sequence (O60674 849-1124 limits assumed): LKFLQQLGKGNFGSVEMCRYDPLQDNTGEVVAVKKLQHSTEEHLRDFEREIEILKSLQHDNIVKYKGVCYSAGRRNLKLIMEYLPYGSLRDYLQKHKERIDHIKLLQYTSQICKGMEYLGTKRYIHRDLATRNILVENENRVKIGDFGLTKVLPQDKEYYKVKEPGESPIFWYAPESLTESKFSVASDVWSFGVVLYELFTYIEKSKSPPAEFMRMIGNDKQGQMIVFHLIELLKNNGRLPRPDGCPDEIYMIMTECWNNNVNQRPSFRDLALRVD
T1 sequence (P23458 875-1153 limits assumed): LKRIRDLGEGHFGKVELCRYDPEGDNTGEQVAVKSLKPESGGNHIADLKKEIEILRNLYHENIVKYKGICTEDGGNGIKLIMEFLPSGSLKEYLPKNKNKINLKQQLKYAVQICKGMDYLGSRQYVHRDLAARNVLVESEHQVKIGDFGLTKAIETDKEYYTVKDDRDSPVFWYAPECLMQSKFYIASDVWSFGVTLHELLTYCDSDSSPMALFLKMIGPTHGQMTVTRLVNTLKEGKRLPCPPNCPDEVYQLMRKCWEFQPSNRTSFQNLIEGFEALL

`CNC(=O)[C@@H]1CCCN1C1CCN(C(=O)Cn2cc(NC(=O)c3cnn4cccnc34)c(-c3cc(SC)ccc3OC(F)F)n2)CC1` [Example 52, N-[3-[2-(difluoromethoxy)-5-methylsulfanyl-phenyl]-1-[2-[4-[(2S)-2-(methylcarbamoyl)pyrrolidin-1-yl]-1-piperidyl]-2-oxo-ethyl]pyrazol-4-yl]pyrazolo[1,5-a]pyrimidine-3-carboxamide]: the Ki (in general, a dissociation constant, usually derived from enzyme kinetics or from competition with a known ligand) in assay [1] was found to be 0.29 nM; in assay [2], 0.44 nM. For the same molecule, in assay [3], the IC50 (usually the concentration at which inhibition is half-maximal) amounted to 43 nM.
Turning to `CC(C)Sc1ccc(OC(F)F)c(-c2nn(CC(=O)N3CCC(N(CCN4CCOCC4)C4COC4)CC3)cc2NC(=O)c2cnn3cccnc23)c1` [Example 147, N-[3-[2-(difluoromethoxy)-5-isopropylsulfanyl-phenyl]-1-[2-[4-[2-morpholinoethyl(oxetan-3-yl)amino]-1-piperidyl]-2-oxo-ethyl]pyrazol-4-yl]pyrazolo[1,5-a]pyrimidine-3-carboxamide], the inhibitory constant (Ki) is 0.73 nM in assay [1] and 1.8 nM in assay [2]. The 50% inhibitory concentration (IC50) in assay [3] came out at 1000 nM.
For the molecule `CSc1ccc(OC(F)F)c(-c2nn(CC(=O)N3CCC(CN4CCC[C@H]4C(=O)N(C)C)CC3)cc2NC(=O)c2cnn3cccnc23)c1` [Example 43, N-[3-[2-(difluoromethoxy)-5-methylsulfanyl-phenyl]-1-[2-[4-[[(2S)-2-(dimethylcarbamoyl)pyrrolidin-1-yl]methyl]-1-piperidyl]-2-oxo-ethyl]pyrazol-4-yl]pyrazolo[1,5-a]pyrimidine-3-carboxamide], the inhibitory constant (Ki) in assay [1] turned out to be 0.35 nM; in assay [2], 0.87 nM. Also, the IC50 in assay [3] was determined as 76 nM.
The corresponding values for `CSc1ccc(OC(F)F)c(-c2nn(CC(=O)N3CCC(N4CCC(C#N)CC4)CC3)cc2NC(=O)c2cnn3cccnc23)c1` [Example 18, N-[1-[2-[4-(4-cyano-1-piperidyl)-1-piperidyl]-2-oxo-ethyl]-3-[2-(difluoromethoxy)-5-methylsulfanyl-phenyl]pyrazol-4-yl]pyrazolo[1,5-a]pyrimidine-3-carboxamide] are 0.24 nM, 0.37 nM and 6 nM.
The corresponding values for `CC(C)Sc1ccc(OC(F)F)c(-c2nn(CC(=O)N3CCC(N4CCO[C@@H](CO)C4)CC3)cc2NC(=O)c2cnn3cccnc23)c1` [Example 155, N-[3-[2-(difluoromethoxy)-5-isopropylsulfanyl-phenyl]-1-[2-[4-[(2R)-2-(hydroxymethyl)morpholin-4-yl]-1-piperidyl]-2-oxo-ethyl]pyrazol-4-yl]pyrazolo[1,5-a]pyrimidine-3-carboxamide] are 0.31 nM, 0.99 nM and 48 nM.
The corresponding values for `CC(C)Sc1ccc(OC(F)F)c(-c2nn(CC(=O)N3CCC(N4CC5CC(C4)O5)CC3)cc2NC(=O)c2cnn3cccnc23)c1` [Example 130, N-[3-[2-(difluoromethoxy)-5-isopropylsulfanyl-phenyl]-1-[2-[4-(6-oxa-3-azabicyclo[3.1.1]heptan-3-yl)-1-piperidyl]-2-oxo-ethyl]pyrazol-4-yl]pyrazolo[1,5-a]pyrimidine-3-carboxamide] are 0.57 nM, 1 nM and 19 nM.
Regarding `CC(C)Sc1ccc(OC(F)F)c(-c2nn(CC(=O)N3CCC(N4CCN(C)C(=O)C4)CC3)cc2NC(=O)c2cnn3cccnc23)c1` [Example 106, N-[3-[2-(difluoromethoxy)-5-isopropylsulfanyl-phenyl]-1-[2-[4-(4-methyl-3-oxo-piperazin-1-yl)-1-piperidyl]-2-oxo-ethyl]pyrazol-4-yl]pyrazolo[1,5-a]pyrimidine-3-carboxamide], the Ki was determined as 0.4 nM in assay [1] and 0.79 nM in assay [2]. Further, the IC50 in assay [3] turned out to be 110 nM.
With `CC(C)Sc1ccc(OC(F)F)c(-c2nn(CC(=O)N3CCC(N(C)CC4OCCO4)CC3)cc2NC(=O)c2cnn3cccnc23)c1` [Example 123, N-[3-[2-(difluoromethoxy)-5-isopropylsulfanyl-phenyl]-1-[2-[4-[1,3-dioxolan-2-ylmethyl(methyl)amino]-1-piperidyl]-2-oxo-ethyl]pyrazol-4-yl]pyrazolo[1,5-a]pyrimidine-3-carboxamide], the Ki in assay [1] worked out at 0.79 nM; in assay [2], 2 nM. In addition, the IC50 in assay [3] is 38 nM.
The corresponding values for `CSc1ccc(OC(F)F)c(-c2nn(CC(=O)N3CCC(CN4CCN(CC(=O)N(C)C)CC4)CC3)cc2NC(=O)c2cnn3cccnc23)c1` [Example 25, N-(3-(2-(difluoromethoxy)-5-(methylthio)phenyl)-1-(2-(4-((4-(2-(dimethylamino)-2-oxoethyl)piperazin-1-yl)methyl)piperidin-1-yl)-2-oxoethyl)-1H-pyrazol-4-yl)pyrazolo[1,5-a]pyrimidine-3-carboxamide] are 0.31 nM, 0.51 nM and 18 nM.
The like results for `CC(C)Sc1ccc(OC(F)F)c(-c2n[nH]cc2NC(=O)c2cnn3cccnc23)c1` [Example 101, N-[3-[2-(difluoromethoxy)-5-(propan-2-ylsulfanyl)phenyl]-1H-pyrazol-4-yl]pyrazolo[1,5-a]pyrimidine-3-carboxamide] were, in that order, 0.2 nM, 0.093 nM and 3.7 nM.
On to `CC(C)Sc1ccc(OC(F)F)c(-c2nn(CC(=O)N3CCC(N4CCO[C@H](CO)C4)CC3)cc2NC(=O)c2cnn3cccnc23)c1` [Example 149, N-[3-[2-(difluoromethoxy)-5-isopropylsulfanyl-phenyl]-1-[2-[4-[(2S)-2-(hydroxymethyl)morpholin-4-yl]-1-piperidyl]-2-oxo-ethyl]pyrazol-4-yl]pyrazolo[1,5-a]pyrimidine-3-carboxamide], for which the Ki in assay [1] was 0.52 nM; in assay [2] it was 1.2 nM. Moreover, the IC50 in assay [3] came to 50 nM.
Consider `CC(C)Sc1ccc(OC(F)F)c(-c2nn(CC(=O)N3CCC(N4CCNC(=O)C4)CC3)cc2NC(=O)c2cnn3cccnc23)c1` [Example 108, N-[3-[2-(difluoromethoxy)-5-isopropylsulfanyl-phenyl]-1-[2-oxo-2-[4-(3-oxopiperazin-1-yl)-1-piperidyl]ethyl]pyrazol-4-yl]pyrazolo[1,5-a]pyrimidine-3-carboxamide], for which the Ki amounted to 0.37 nM in assay [1] and 0.94 nM in assay [2]. Further, the IC50 in assay [3] came to 850 nM.
The like results for `O=C(Nc1cn(CC(=O)N2CCN(CCN3CCOCC3)CC2)nc1-c1cc(SC2CC2)ccc1OC(F)F)c1cnn2cccnc12` [Example 163, N-[3-[5-(cyclopropylsulfanyl)-2-(difluoromethoxy)phenyl]-1-(2-[4-[2-(morpholin-4-yl)ethyl]piperazin-1-yl]-2-oxoethyl)-1H-pyrazol-4-yl]pyrazolo[1,5-a]pyrimidine-3-carboxamide] were, in that order, 0.43 nM, 0.94 nM and 24 nM.
The like results for `O=C(Nc1c[nH]nc1-c1cc(SC2CC2)ccc1OC(F)F)c1cnn2cccnc12` [Example 160, N-[3-[5-(cyclopropylsulfanyl)-2-(difluoromethoxy)phenyl]-1H-pyrazol-4-yl]pyrazolo[1,5-a]pyrimidine-3-carboxamide] were, in that order, 0.098 nM, 0.056 nM and 7.3 nM.
The like results for `CSc1ccc(OC(F)F)c(-c2nn(CC(=O)N3CCC(N4CCO[C@H](CO)C4)CC3)cc2NC(=O)c2cnn3cccnc23)c1` [Example 84, N-[3-[2-(difluoromethoxy)-5-methylsulfanyl-phenyl]-1-[2-[4-[(2S)-2-(hydroxymethyl)morpholin-4-yl]-1-piperidyl]-2-oxo-ethyl]pyrazol-4-yl]pyrazolo[1,5-a]pyrimidine-3-carboxamide] were, in that order, 0.37 nM, 0.53 nM and 44 nM.
Turning to `CSc1ccc(OC(F)F)c(-c2nn(C3(CC#N)CN(C(=O)OC(C)(C)C)C3)cc2NC(=O)c2cnn3cccnc23)c1` [Example 78, tert-butyl 3-(cyanomethyl)-3-[3-[2-(difluoromethoxy)-5-methylsulfanyl-phenyl]-4-(pyrazolo[1,5-a]pyrimidine-3-carbonylamino)pyrazol-1-yl]azetidine-1-carboxylate], the inhibition constant (Ki) in assay [1] was determined as 0.92 nM; in assay [2], 0.72 nM. Besides, the IC50 in assay [3] turned out to be 69 nM.
The corresponding values for `CSc1ccc(OC(F)F)c(-c2nn(CC(=O)N3CCC(NCC(C)(F)F)CC3)cc2NC(=O)c2cnn3cccnc23)c1` [Example 19, N-[3-[2-(difluoromethoxy)-5-methylsulfanyl-phenyl]-1-[2-[4-(2,2-difluoropropylamino)-1-piperidyl]-2-oxo-ethyl]pyrazol-4-yl]pyrazolo[1,5-a]pyrimidine-3-carboxamide] are 0.24 nM, 0.39 nM and 7.4 nM.
The like results for `CSc1ccc(OC(F)F)c(-c2nn(CC(=O)N3CCC(NCC4(C#N)CC4)CC3)cc2NC(=O)c2cnn3cccnc23)c1` [Example 41, N-[1-[2-[4-[(1-cyanocyclopropyl)methylamino]-1-piperidyl]-2-oxo-ethyl]-3-[2-(difluoromethoxy)-5-methylsulfanyl-phenyl]pyrazol-4-yl]pyrazolo[1,5-a]pyrimidine-3-carboxamide] were, in that order, 0.27 nM, 0.45 nM and 20 nM.
